# Assay results from PubChem BioAssay AID1259407 (Chemical Carcinogenesis Research Information System (CCRIS), 2018).
# Active and inactive are the calls of the source. No rule for the calls is given here.
# System: CCRIS mutagenicity, Ames/micronucleus/aberration tests
# Assay: CCRIS mutagenicity studies
# [1] = Test System: AMES SALMONELLA TYPHIMURIUM, Strain/Indicator: TA100, Metabolic Activation: NONE, Method: STANDARD PLATE
# [2] = Test System: AMES SALMONELLA TYPHIMURIUM, Strain/Indicator: TA98, Metabolic Activation: NONE, Method: PREINCUBATION
# [3] = Test System: AMES SALMONELLA TYPHIMURIUM, Strain/Indicator: TA100, Metabolic Activation: NONE, Method: PREINCUBATION
smiles,measurement,setting,value
O=C([O-])[O-].[Mn+2],mutagenic call,"Test System: AMES SALMONELLA TYPHIMURIUM, Strain/Indicator: TA97, Metabolic Activation: NONE, Method: PREINCUBATION",inactive; negative
same,mutagenic call,"Test System: AMES SALMONELLA TYPHIMURIUM, Strain/Indicator: TA97, Metabolic Activation: S-9, Method: PREINCUBATION",inactive; negative
same,mutagenic call,"Test System: AMES SALMONELLA TYPHIMURIUM, Strain/Indicator: TA102, Metabolic Activation: NONE, Method: PREINCUBATION",inactive; negative
same,mutagenic call,"Test System: AMES SALMONELLA TYPHIMURIUM, Strain/Indicator: TA102, Metabolic Activation: S-9, Method: PREINCUBATION",inactive; negative
Cc1ccc(N)c(Cl)c1,mutagenic call,"Test System: UDS RODENT HEPATOCYTES, Strain/Indicator: THY INCORP (NON-S-PHASE), Metabolic Activation: NONE, Method: AUTORADIOGRAPHY",active; positive
Cn1cnc(N=O)c1-c1ccccc1,mutagenic call,[1],active; positive
c1ccc2c(c1)Nc1ccccc1S2,mutagenic call,"Test System: AMES SALMONELLA TYPHIMURIUM, Strain/Indicator: TA98, Metabolic Activation: HAMSTER, LIVER, S-9, AROCLOR 1254 (10%), Method: PREINCUBATION",inactive; negative
same,mutagenic call,[2],inactive; negative
same,mutagenic call,"Test System: AMES SALMONELLA TYPHIMURIUM, Strain/Indicator: TA98, Metabolic Activation: NONE, Method: SPOT TEST",inactive; negative
same,mutagenic call,"Test System: AMES SALMONELLA TYPHIMURIUM, Strain/Indicator: TA98, Metabolic Activation: RAT, LIVER, S-9, AROCLOR 1254 (10%), Method: PREINCUBATION",inactive; negative
same,mutagenic call,"Test System: AMES SALMONELLA TYPHIMURIUM, Strain/Indicator: TA100, Metabolic Activation: HAMSTER, LIVER, S-9, AROCLOR 1254 (10%), Method: PREINCUBATION",inactive; negative
same,mutagenic call,[3],inactive; negative
same,mutagenic call,"Test System: AMES SALMONELLA TYPHIMURIUM, Strain/Indicator: TA100, Metabolic Activation: RAT, LIVER, S-9, AROCLOR 1254 (10%), Method: PREINCUBATION",inactive; negative
same,mutagenic call,"Test System: AMES SALMONELLA TYPHIMURIUM, Strain/Indicator: TA1535, Metabolic Activation: HAMSTER, LIVER, S-9, AROCLOR 1254 (10%), Method: PREINCUBATION",inactive; negative
same,mutagenic call,"Test System: AMES SALMONELLA TYPHIMURIUM, Strain/Indicator: TA1535, Metabolic Activation: NONE, Method: PREINCUBATION",inactive; negative
same,mutagenic call,"Test System: AMES SALMONELLA TYPHIMURIUM, Strain/Indicator: TA1535, Metabolic Activation: RAT, LIVER, S-9, AROCLOR 1254 (10%), Method: PREINCUBATION",inactive; negative
same,mutagenic call,"Test System: AMES SALMONELLA TYPHIMURIUM, Strain/Indicator: TA1537, Metabolic Activation: HAMSTER, LIVER, S-9, AROCLOR 1254 (10%), Method: PREINCUBATION",inactive; negative
same,mutagenic call,"Test System: AMES SALMONELLA TYPHIMURIUM, Strain/Indicator: TA1537, Metabolic Activation: NONE, Method: PREINCUBATION",inactive; negative
same,mutagenic call,"Test System: AMES SALMONELLA TYPHIMURIUM, Strain/Indicator: TA1537, Metabolic Activation: RAT, LIVER, S-9, AROCLOR 1254 (10%), Method: PREINCUBATION",inactive; negative
Nc1cc([N+](=O)[O-])ccc1-c1ccc([N+](=O)[O-])cc1,mutagenic call,[2],active; positive
same,mutagenic call,"Test System: AMES SALMONELLA TYPHIMURIUM, Strain/Indicator: TA98, Metabolic Activation: RAT LIVER S-9, AROCLOR 1254, Method: PREINCUBATION",active; positive
same,mutagenic call,[3],active; positive
same,mutagenic call,[1],active; positive
same,mutagenic call,"Test System: AMES SALMONELLA TYPHIMURIUM, Strain/Indicator: TA100, Metabolic Activation: RAT LIVER S-9, AROCLOR 1254, Method: PREINCUBATION",active; positive
same,mutagenic call,"Test System: AMES SALMONELLA TYPHIMURIUM, Strain/Indicator: TA104, Metabolic Activation: NONE, Method: STANDARD PLATE",active; positive
same,mutagenic call,"Test System: AMES SALMONELLA TYPHIMURIUM, Strain/Indicator: TA4001, Metabolic Activation: NONE, Method: STANDARD PLATE",inactive; negative
same,mutagenic call,"Test System: AMES SALMONELLA TYPHIMURIUM, Strain/Indicator: TA4006, Metabolic Activation: NONE, Method: STANDARD PLATE",active; positive
same,mutagenic call,"Test System: AMES SALMONELLA TYPHIMURIUM, Strain/Indicator: TA7002, Metabolic Activation: NONE, Method: STANDARD PLATE",active; positive
same,mutagenic call,"Test System: AMES SALMONELLA TYPHIMURIUM, Strain/Indicator: TA7002, Metabolic Activation: RAT LIVER S-9, AROCLOR 1254, Method: STANDARD PLATE",active; positive
same,mutagenic call,"Test System: AMES SALMONELLA TYPHIMURIUM, Strain/Indicator: TA7003, Metabolic Activation: NONE, Method: STANDARD PLATE",active; positive
same,mutagenic call,"Test System: AMES SALMONELLA TYPHIMURIUM, Strain/Indicator: TA7003, Metabolic Activation: RAT LIVER S-9, AROCLOR 1254, Method: STANDARD PLATE",active; positive
same,mutagenic call,"Test System: AMES SALMONELLA TYPHIMURIUM, Strain/Indicator: TA7004, Metabolic Activation: NONE, Method: STANDARD PLATE",active; positive
same,mutagenic call,"Test System: AMES SALMONELLA TYPHIMURIUM, Strain/Indicator: TA7004, Metabolic Activation: RAT LIVER S-9, AROCLOR 1254, Method: STANDARD PLATE",active; positive
same,mutagenic call,"Test System: AMES SALMONELLA TYPHIMURIUM, Strain/Indicator: TA7005, Metabolic Activation: NONE, Method: STANDARD PLATE",active; positive
same,mutagenic call,"Test System: AMES SALMONELLA TYPHIMURIUM, Strain/Indicator: TA7005, Metabolic Activation: RAT LIVER S-9, AROCLOR 1254, Method: STANDARD PLATE",active; positive
same,mutagenic call,"Test System: AMES SALMONELLA TYPHIMURIUM, Strain/Indicator: TA7006, Metabolic Activation: NONE, Method: STANDARD PLATE",active; positive
same,mutagenic call,"Test System: AMES SALMONELLA TYPHIMURIUM, Strain/Indicator: TA7006, Metabolic Activation: RAT LIVER S-9, AROCLOR 1254, Method: STANDARD PLATE",active; positive
same,mutagenic call,"Test System: Ames Salmonella typhimurium, Strain/Indicator: TA102, Metabolic Activation: None, Method: Preincubation",active; positive
same,mutagenic call,"Test System: Ames Salmonella typhimurium, Strain/Indicator: TA102, Metabolic Activation: Rat, liver, S-9, Aroclor 1254 (4%), Method: Preincubation",inactive; negative
O=[N+]([O-])c1ccc(I)c([N+](=O)[O-])c1,mutagenic call,"Test System: AMES SALMONELLA TYPHIMURIUM, Strain/Indicator: TA98(1,8-DNP6), Metabolic Activation: NONE, Method: PREINCUBATION",active; positive
same,mutagenic call,"Test System: AMES SALMONELLA TYPHIMURIUM, Strain/Indicator: TA98(NR), Metabolic Activation: NONE, Method: PREINCUBATION",active; positive
same,mutagenic call,[2],active; positive
